From patent US6664246B2, “Pharmaceutical composition” (MRC Holdings PTY Limited, priority 1999, dated 2003) come the findings set out here.

Series [1] can be described thus: Radiolabelled vitamin D3 levels in liver, tumor and plasma after hepatic artery injection in Novikoff tumor bearing rats. The series is classed as in vivo, Sprague-Dawley rats. Conditions: 1 hour post injection. On the procedure: Male 300-350 gr. Sprague-Dawely rats were given a general anaesthetic (halothane) and a lapratomy performed. Then 5×10^6 Novikoff cells suspended in 100 μl of medium was instilled beneath the liver capsule using a 26G3/8-tuberculin needle. The abdominal incision was then closed with gut suture.
Animals were then left for 10 days with food and water available ad libitum and monitored daily to assess health and well being. After this period, animals were randomly allocated to one of the treatment groups (n=6 per group) and lapratomy was performed again. A catheter was inserted into the hepatic artery of the animal, through which radiolabelled vitamin D3 or vehicle injections were carried out. The different experimental groups treated were as follows:
After administration of the drug, the catheter was removed and the incision sutured. Animals were euthanased at 1 hour, 1, and 3 days post drug (or vehicle) administration. Just before euthanasing, 3 ml of blood was drawn through cardiac puncture from each animal.
Post mortem, the liver and the tumor of each animal was excised, weighed and frozen in the freezer until analysis. After tissue homogenization, liver, tumor or plasma was extracted with dichloromethane. The amount of hot vitamin D3 present in each sample was determined using a β-counter.

Series [2] deals with HepG2 cells. Kind of series: [3H]thymidine incorporation cell proliferation assay. The series is classed as cell-based, human. The protocol: (§1) Following exposure of cells to vitamin D3 dissolved in normal or lipiodol (1% v/v) containing media. [^3H]thymidine incorporation assay and the trypan blue exclusion cell count methods were used to determine cell proliferation. To do this, cells were plated in 24 well tissue culture plates at 10^4 cells per well and incubated for 24 h in an incubator at 37° C. with humidified 5% CO2 atmosphere. The, medium was replaced with one containing vitamin D3(10^−11 to 10^−7 M) dissolved in either the normal medium or first dissolved in lipiodol and then mixed thoroughly with the medium to make a final lipiodol concentration of 1% (v/v). For acute dose studies, cells were exposed to one of the two drug containing media for 24 h, which were then replaced with drug free medium for the next four days. Whilst, in chronic treatment, cells were exposed for 5 days to different concentrations of the drug dissolved in one of the media described above. The media were changed on alternate days. At the end of treatment period, cell cultures were assayed for thymidine incorporation by the addition of 0.1μ Ci of [^3H]thymidine to each well for the last 4 h of culture. The amount of radioactivity incorporated into trichloroacetic acid precipitatable material was determined using a β-scintillation counter. Results are plotted as percentage inhibition relative to control. […]
For orientation: Uptake of a labelled nucleoside into DNA is a usual measure of proliferation.

Series [3] relates to HepG2 cells. Kind of series: Trypan blue exclusion cell count assay. The series is classed as cell-based, human. On the procedure:
as §1, with “At the end of treatment period, cell cultures were assayed for thymidine incorporation by the addition of 0.1μ Ci of [^3H]thymidine to each well for the last 4 h of culture.” left out, “counter.” for “counter. Results are plotted as percentage inhibition relative to control.”
For the cell count assay, cells were plated in six well plates at a concentration of 5×10^4 cells per well. […] At the end of the treatment period (5 days), cells were trypsinised and counted with a hemocytometer. […]

For another series, the system named is HTC. Kind of series: Screening of rat cell lines for responsiveness to vitamin D3. Conditions: 10^-6 M, read-out: inhibition of proliferation. The series is classed as cell-based. The text has this:
(§2) 2. In order to find an appropriate cell line, which would grow in the rat tumor and also be responsive to vitamin D3, rat cell lines, Novikoff and HTC were screened for responsiveness to vitamin D3(10^−11-10^−6 M).

The test system of the next series is Novikoff. The series is described as above. The series is classed as cell-based. Conditions: 10^-11-10^-6 M.
Text: as §2

The nature of series [4]: Dissolution of 1,25(OH)2D3 in iodised poppy seed oil. The series is classed as physicochemical. Conditions: in one ml of iodised poppy seed oil. On the procedure:
For example, 2 mg of 1,25(OH)2 D3 can be readily dissolved in one ml of iodised poppy seed oil.

As for `C=C1CC[C@H](O)C/C1=C/C=C1\CCC[C@]2(C)[C@@H]([C@H](C)CCCC(C)C)CC[C@@H]12` [vitamin D3, cholecalciferol], in series [1], the “level of radioactivity in liver, tumor and plasma” value is recorded as “high in all three samples”. The “thymidine incorporation compared to control, acute treatment” value in the series on HepG2 cells [2] (1 day exposure to drug, then 4 days medium without drug) was “did not show a reduction in thymidine incorporation”. Besides, the “thymidine incorporation versus control, chronic treatment” value with HepG2 cells [2] (5 days exposure, all concentrations (10^-11 to 10^-7 M)) is “significant reduction in thymidine incorporation”. Moreover, the “cell number, acute treatment” value in the series with HepG2 cells [3] (10^-7 M, 1 day exposure, then 4 days drug free) is “significant reduction in cell number”. Further, the “cell number, chronic treatment” value with HepG2 cells [3] (5 days exposure) is recorded as “dose dependant decrease in call number”. Further, in the series with HTC, the inhibition at 1 µM was approximately 50%. Moreover, in the series with Novikoff, the “responsiveness of cell line to vitamin D3” value is on record as “non responsive”.

`C=C1/C(=C\C=C2/CCC[C@]3(C)[C@@H]([C@H](C)CCCC(C)(C)O)CC[C@@H]23)C[C@@H](O)C[C@@H]1O` [1,25(OH)2 D3, 1,25-dihydroxycholecalciferol]: the amount readily dissolved in series [4] came out at 2 mg.
